# Reference: patent US20250367187A1, “QUINOLINE DERIVATIVE USED FOR TREATING SMALL CELL LUNG CANCER” (CHIA TAI TIANQING PHARMACEUTICAL GROUP CO., LTD., priority 2018, published 2025)
# Counter-ions that a name gives are not always drawn.
# Legend:
# [1] = system: patients with relapsed small cell lung cancer; test: Multicenter, randomized, double-blind, placebo-controlled phase II clinical study; assay type: in vivo, human
# Description: A multicenter, randomized, double-blind and placebo-controlled phase II clinical study was conducted for patients with relapsed small cell lung cancer characterized by presence of measurable lesions and prior standard treatment. In this study; 120 patients were enrolled and randomized to receive oral administration of 1 capsule of the dihydrochloride of the compound of formula I at 12 mg/0 mg once daily. The oral administration was continued for 2 weeks and interrupted for 1 week, i.e., 1 treatment cycle took 3 weeks (21 days). These patients aged 18-75 were treated with the capsule of the dihydrochloride of the compound of formula I and placebo control, and patients who had previously used other targeted drugs (such as sunitinib, bevacizumab, and endostar) and immunotargeted drugs were excluded. In the case of progressive disease (PD) determined by the response evaluation criteria or judged clinically; treatment with other anti-tumor drugs (such as chemotherapy; targeted therapy or biological agent therapy) influencing the judgment of efficacy; unexpected pregnancy; death and the like, the administration was interrupted (terminated) for a subject. For patients with disease under control (CR+PR+SD) and tolerable adverse reactions, the administration was continued. For patients who were unsuitable for continued administration judged by the investigator or were evaluated as PD according to RECIST 1.1 criteria, the administration was terminated. During the administration, depending on the drug-related toxicity degree and the possible efficacy benefit of a patient, the investigator determined whether to adjust the dosage, and the adjustable dosage was 8 mg/0 mg or 10 mg/0 mg. The primary efficacy endpoint was progression-free survival (PFS), and the secondary efficacy endpoints were overall survival (OS), objective response rate (ORR) (CR+PR), disease control rate (DCR) (CR+PR+SD), quality of life score and safety: The objective efficacy endpoint was evaluated according to the response evaluation criteria in solid tumor (RECIST 1.1). All statistical analyses were conducted using the SAS 9.2 statistical analysis software programming. All statistical tests were conducted using bilateral test. When P value≤0.05, the tested difference was considered statistically significant, with the confidence interval being 95% confidence. For the primary efficacy endpoint PFS, 50% (median) PFS and PFS at different time points after the start of the treatment were calculated by using the product limit method according to the data situation, and the two groups were compared using Log-Rank test. For OS, 50% (median) OS was calculated by using the product limit method according to the data situation, and the two groups were compared using Log-Rank test. The full analysis set (FAS) was used for the statistical dataset.
# [2] = system: small cell lung cancer with liver and brain metastases; test: Case of a patient with small cell lung cancer with liver and brain metastases (CT follow-up); assay type: in vivo, human
# Description: A person was pathologically diagnosed with small cell lung cancer of the left lower lobe in October 2013 after surgery. On Dec. […] The patient was admitted to the hospital for one cycle of liposomal paclitaxel+carboplatin+temozolomide chemotherapy and was discharged on December 28.
# One cycle of TC regimen (paclitaxel+carboplatin) was started on Jan. 17, 2017, and the efficacy was evaluated as PD on Feb. 10, 2017. One cycle of IP regimen (irinotecan 120 mg d1, 80 mg d8; cisplatin 100 mg d1) was started on Feb. 16, 2017.
# On May 12, 2017, oral administration of a capsule of the dihydrochloride of the compound of formula I at 12 mg was started once daily for 2 weeks and interrupted for 1 week, every 3-week as one treatment cycle until PD or intolerance.
# The CT results were as follows: • After the first treatment cycle: target lesion: 63 mm; non-target lesions: non-CR/non-PD. • After the second treatment cycle: target lesion: 65 mm; non-target lesions: non-CR/non-PD. • After the fourth treatment cycle: target lesion: 66 mm; non-target lesions: non-CR/non-PD. • After the sixth treatment cycle: target lesion: 72 mm; non-target lesions: non-CR/non-PD. 1-20. (canceled)
# [3] = CR or PR achieved with second-line chemotherapy: No
# [4] = CR or PR achieved with second-line chemotherapy: Yes
# [5] = all patients, FAS, capsule 12 mg oral once daily, 2 weeks on / 1 week off
# [6] = brain metastasis upon enrollment: Yes
# [7] = clinical stage before randomization: extended stage
# [8] = after the fourth treatment cycle
# [9] = after the second treatment cycle
# [10] = after the sixth treatment cycle
structure (smiles),measurement,setting,value
COc1cc2c(Oc3ccc4[nH]c(C)cc4c3F)ccnc2cc1OCC1(N)CC1 [1-[[[4-(4-fluoro-2-methyl-1H-indol-5-yl)oxy-6-methoxyquinolin-7-yl]oxy]methyl]cyclopropylamine dihydrochloride],Overall survival P50,[1]; [3],7.29 month
same,Progression-free survival P50,[1]; [3],4.11 month
same,Overall survival P50,[1]; [4],6.80 month
same,Progression-free survival P50,[1]; [4],2.79 month
same,"Overall survival of patients (OS), Median (95% CI)",[1]; [5],"7.29(6.50, 10.51) month"
same,"Progression-free survival of patients (PFS), Median (95% CI)",[1]; [5],"4.07(2.79, 4.24) month"
same,Overall survival P50,[1]; brain metastasis upon enrollment: No,8.80 month
same,Overall survival P50,[1]; [6],6.08 month
same,Progression-free survival P50,[1]; [6],3.84 month
same,Overall survival P50,[1]; chemotherapy line: second-line,7.29 month
same,Progression-free survival P50,[1]; chemotherapy line: second-line,4.11 month
same,Overall survival P50,[1]; [7],8.05 month
same,Progression-free survival P50,[1]; [7],3.84 month
same,Progression-free survival P50,[1]; clinical stage before randomization: limited stage,4.83 month
same,Progression-free survival P50,[1]; treated with docetaxel: No,4.07 month
same,Progression-free survival P50,[1]; treated with docetaxel: Yes,2.83 month
same,Progression-free survival P50,[1]; treated with irinotecan + platinum: No,2.83 month
same,Progression-free survival P50,[1]; treated with irinotecan + platinum: Yes,4.07 month
same,Progression-free survival P50,[1]; treated with paclitaxel: No,4.11 month
same,Progression-free survival P50,[1]; treated with paclitaxel: Yes,2.86 month
same,target lesion (CT),"[2]; after the first treatment cycle, liver nodes, 64 mm before treatment, 12 mg once daily 2 weeks on / 1 week off",63 mm
same,non-target lesions (CT),"[2]; after the first treatment cycle, multiple metastases in the brain",non-CR/non-PD
same,non-target lesions (CT),[2]; [8],non-CR/non-PD
same,target lesion (CT),[2]; [8],66 mm
same,non-target lesions (CT),[2]; [9],non-CR/non-PD
same,target lesion (CT),[2]; [9],65 mm
same,non-target lesions (CT),[2]; [10],non-CR/non-PD
same,target lesion (CT),[2]; [10],72 mm
same,tolerability of the administration,"[2]; capsule 12 mg oral once daily, 2 weeks on / 1 week off",well tolerated
